From patent US20140228299A1, “PROPHYLACTIC AND THERAPEUTIC AGENT FOR NEUROLOGICAL DISEASES USING LIPOPROTEINS AND PROPHYLACTIC AND THERAPEUTIC METHOD FOR NEUROLOGICAL DISEASES” (National University Corporation Tokyo Medical and Dental …, priority 2011, published 2014)

Key:
retinal ganglion cells = experiment: Glutamic acid-induced apoptosis of cultured retinal ganglion cells (Hoechst 33342 or calcein AM/propidium iodide staining); assay type: cell-based, rat
Description: The primary culture of the retinal glia cells was carried out using two-day-old Sprague Dawley (SD) baby rats in accordance with a somewhat modified method (Hayashi et al., J. Biol. Chem. 2009) of the method of Barres et al. (Barres, et al., 1988). The isolated retinal glia cells (RGC) were suspended in a base culture medium of a RGC medium (1 mM glutamine, 5 μg/mL insulin, 60 μg/mL N-acetylcysteine, 62 ng/mL progesterone, 16 μg/mL putrescine, 40 ng/mL sodium selenite, 0.1 mg/mL bovine serum albumin, 40 ng/mL triiodothyronine, 0.1 mg/mL transferrin, 1 mM sodium pyruvate, 2% B27 supplement (Invitrogen, Carlsbad, Calif.), 10 μM forskolin (Sigma, St. Louis, Mo.), 50 ng/mL brain-derived neurotrophic factor (BDNF; PeproTech, Rocky Hill, N.J.), 50 ng/mL ciliary neurotrophic factor (CNTF; Peprotech), and 50 ng/mL basic fibroblast growth factor (bFGF; PeproTech). A 96-well plate was coated with poly-d-lysine (Sigma) and laminin (Sigma), and RGC was placed at the rate of 5,000 cells per well for the 96-well place, 5,000 cells per each culture insert for microdish, or 15,000 cells per dish for compartmentalized culture, followed by incubating for at least 10 days before experimentation.
In the figure, Cant represents a non-treated group, Glu represents a group with 300 μM glutamic acid added, and +glial LP represents a group with 300 μM glutamate+glia-cell-derived lipoprotein containing apolipoprotein E added. Glial LP was added in the concentration of 1 μg cholesterol/mL. After treatment, the rate of apoptosis-like cells was computed by observing the aggregation of the nuclei (a: nuclear staining with Hoechst 33342) or the sustained impermeability of esterase activity/membrane (b: calcein AM/Propidium Iodide staining) in 24 hours.
The induction and detection of apoptosis in RGC were performed in the manner as described below. Specifically, RGC was washed twice with Hanks' balanced salt solution (HBSS) containing 2.4 mM CaCl2 and 20 mM HEPES, but not containing magnesium, and incubated at 37° C. for 2 hours in a medium prepared by adding 300 μM glutamate and 10 μM glycine to the above Hanks' balanced salt solution. After treatment with glutamate, RGC was incubated at 37° C. for 22 hours in a RGC culture medium containing no forskolin, BDNF, CNTF and bFGF. In order to detect apoptosis, RGC was stained with 1 μg/mL of Hoechst 33342 (346-07951, Dojindo, Kumamoto, Japan) or 1 μg/mL of calcein-AM/propidium iodide (341-07381, Dojindo). The fluorescence images were observed by Olympus IX71 microscope. The fragmented or aggregated nuclei stained with the above Hoechst reagent were counted as apoptotic nuclei, and round and smooth nuclei were counted as sound nuclei. As the sound nuclei were not stained with propidium iodide, the nuclei stained with propidium iodide were counted as apoptotic nuclei. More than 300 nuclei were counted in each group.
The apoptosis of RGC was measured in the following manner. The RGC subjected to the primary incubated was incubated two times at 37° C. for 15 minutes using Hanks' Balanced Salt Solution (HBSS) containing 2.4 mM CaCl2 and 20 mM 4-(2-hydroxyethyl)-pyperazine-1-ethanesulfonic acid (HEPES) but containing no magnesium and then washed. […], the magnesium was removed from the washing solution. Thereafter, the RGC was treated or not treated with […] (a co-activating agent for the NMDA receptor) in HBSS containing 2.4 mM CaCl2 and 20 mM HEPES (without magnesium) and then incubated at 37° C. for 2 hours. A control (HBSS containing 2.4 mM CaCl2 and 20 mM HEPES (without containing magnesium)) or the RGC treated or not treated with glutamic acid was incubated at 37° C. for 22 hours in the same medium as used for the RGC (without forskolin, brain-derived neurotrophic factor, ciliary neurotrophic factor and basic fibroblast growth factor). […]

[1] = test system: retinal ganglion cells of GLAST knockout mouse; experiment: Intravitreal administration to GLAST knockout mouse (normal-pressure glaucoma model), counting of retinal ganglion cells; assay type: in vivo
Description: This example is an experiment to investigate whether the reconstituted lipoprotein containing apolipoprotein E3 (LP) inhibits apoptosis of the […] of a GLAST knockout mouse as a normal-pressure glaucoma model animal. […] The eyeball was removed at the time of six weeks, followed by fixing with paraffin, staining with hematoxylin-eosin, and counting the retinal glia cells on the retina.
Three-week-old GLAST+/− or GLAST−/− mice were anesthetized by intraperitoneal injection of 50 mg/kg of pentobarbital sodium. […]
The eyeball of a six-week-old mouse was removed and fixed overnight at 4° C. using Super Fix (KY-500, Kurabo. Osaka), followed by removing the cornea and the crystalline lens under a stereoscopic microscope. […] Five sections were selected from each of the continuous sections and the number of the cells within the glia cell layer was counted in a range extending from one end of the retinal section to the other end through the optic nerve. More than 2,000 cells were counted on 10 sections of each retina.

[2] = test system: α2-macroglobulin released from glia cells; experiment: α2-macroglobulin released from primary cultured glia cells (immunoblotting of culture supernatant); assay type: cell-based; conditions: 100 or 1,000 ng/mL; culture supernatant after 24 hours
Description: This example was to examine the amount of α2-macroglobulin released from the glia cells. To a culture mixture of the glia cells obtained by the primary culture, human lipoprotein containing apoE (100 or 1,000 ng/mL) was added, followed by collection of a culture supernatant after 24 hours. After the resulting supernatant was subjected to SDS-PAGE, it was detected by the immunoblotting using anti-α2-macroglobulin antibody. As a result, a decrease in the amount of α2-macroglobulin released from the glia cells was observed by the addition of the human lipoprotein containing apoE (FIG. 18).

Row | Substance | effect on the inhibitory effects of α2-macroglobulin on neuroprotection (retinal ganglion cells; 100 nM a2M, E-LP 100-3,000 ng protein/mL, Glu, Hoechst 24 hours) | protection of RGC from Glu-induced neurotoxicity, dose dependence (retinal ganglion cells; RGC incubated with E-LP 15 minutes before Glu) | RGC existence in Glast+/− and Glast−/− mice ([1]; 1 μl of 1.5 μg protein/mL E-LP into vitreous body, three-week-old injected, six-week-old examined) | amount of α2-macroglobulin released from the glia cells [2] | difference in neuroprotective effects between apoE isoforms in RGC treated with glutamic acid (retinal ganglion cells; 100 ng protein/mL, 15 minutes before Glu) | apoptosis of retinal cells induced by glutamic acid (apoptosis-like cells) (retinal ganglion cells; added at 100 ng protein/mL, Hoechst 33342) | apoptosis of the retinal cells of GLAST knockout mouse ([1]; LP (100 ng protein/mL) into vitreous body at three weeks, eyeball removed at six weeks)
1 | E-LP: reconstituted lipoprotein of 1-palmitoyl-2-oleyl-glycerophosphocoline, cholesterol and recombinant human apolipoprotein E, molar ratio 100:10:1 or 100:0:1 | inhibited | protected the RGC in a dose-dependent manner | recovery | decrease |  |  | 
2 | LP: reconstituted lipoprotein of POPC, cholesterol and recombinant human apolipoprotein E3 |  |  |  |  | no difference | inhibited the apoptosis | inhibited apoptosis
